These results are taken from patent US20210179686A1, “CELL SORTING SYSTEMS AND METHODS OF USE” (MEMORIAL SLOAN-KETTERING CANCER CENTER, priority 2018, published 2021).

One experiment has as its system FLAG-RR12EE345L. Nature of the experiment: capture and presentation of secreted FLAG leucine zipper by mutant blocking leucine zippers in C1498 cells. Format: cell-based. Particulars: FIG. 20. From the text:
A series of mutations were made in the “g” residues of the blocking leucine zipper to reduce heterodimerization affinity between the capture leucine zipper and the linked blocking leucine zipper. The following six mutants were made: 1N mutant: E1R2EE345L (having the amino acid sequence set forth in SEQ ID NO: 98), 1M mutant: RR123E45L (having the amino acid sequence set forth in SEQ ID NO: 99), 2N mutant: EE12345L (having the amino acid sequence set forth in SEQ ID NO: 102), 2M mutant: RR1234E5L (having the amino acid sequence set forth in SEQ ID NO: 103), 3N mutant: EE12R3E45L (having the amino acid sequence set forth in SEQ ID NO: 106), and 3C mutant: RR12345L (having the amino acid sequence set forth in SEQ ID NO: 107).
C1498 cells were co-transduced with the FLAG-RR12EE345L GFP vector and one of the six mutants as part of RR12EE345L linker EE12RR345L BFP vector constructs. […] Thus, mutating the […] leucine zipper at “g” position residues to include repulsive amino acid interactions can reduce the degree of blocking by the linked […]-based mutant leucine zipper.

The next experiment has as its target T1, iCaspase 9 (Homo sapiens, UniProt P55211, Q221R).
T1 construct: […]; expressed in transfected cells
Nature of the experiment: activation of iCaspase 9 suicide gene by chemical inducer of dimerization in sorted dual-transduced T cells. Format: cell-based, mouse. The procedure: FIG. 5 depicts purification and testing of dual-transduced cells with iCaspase 9 and CD20-CAR. T cells comprising RR12EE345L-FLAG iCaspase 9 (vector 1) and RR12EE345L-linker-EE12RR345L-Thy1.1 CD20-CAR (vector 2) were incubated with EL4-CD19 and EL4-CD20 targets in the presence or absence of chemical inducer of dimerization (CID).
IL-18 secretion was assessed by ELISA. Interferon gamma secretion was assessed by cytometric bead array.

In the next experiment the test system is CD20 mimotope. Nature of the experiment: antibody plus complement depletion of double transduced C1498 cells. Format: cell-based. The note with it: RQR-RR12EE345L plus capture leucine zipper, in the presence of complement, FIG. 18. The procedure: Next, C1498 cells were double transduced with capture leucine zippers as shown in FIG. 18 and a second vector encoding the tandem CD20 mimotope/CD34 leucine zipper tag (RQR-RR12EE345L). Subsequently, the cells were incubated with anti-CD20 antibody Rituximab or irrelevant antibody Cetuximab in the presence of complement.
Chain of CD20 mimotope (as listed by the source): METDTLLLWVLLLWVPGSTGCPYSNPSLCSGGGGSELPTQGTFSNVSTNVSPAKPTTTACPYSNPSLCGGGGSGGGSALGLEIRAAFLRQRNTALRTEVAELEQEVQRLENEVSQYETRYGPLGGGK

Bounds are passed on as bounds.

T1 sequence (P55211 with tags, fused parts or gaps Q221R): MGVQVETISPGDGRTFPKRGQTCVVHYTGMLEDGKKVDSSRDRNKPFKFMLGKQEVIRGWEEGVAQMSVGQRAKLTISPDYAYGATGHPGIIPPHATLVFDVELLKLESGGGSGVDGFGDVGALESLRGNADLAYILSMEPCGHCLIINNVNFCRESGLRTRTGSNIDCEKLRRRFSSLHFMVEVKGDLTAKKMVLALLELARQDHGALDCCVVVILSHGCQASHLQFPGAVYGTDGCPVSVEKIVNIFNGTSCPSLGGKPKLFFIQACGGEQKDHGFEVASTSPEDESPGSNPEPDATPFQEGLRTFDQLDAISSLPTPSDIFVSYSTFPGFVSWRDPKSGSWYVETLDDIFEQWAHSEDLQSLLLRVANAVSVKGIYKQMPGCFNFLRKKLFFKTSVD
Chain of FLAG-RR12EE345L (as listed by the source): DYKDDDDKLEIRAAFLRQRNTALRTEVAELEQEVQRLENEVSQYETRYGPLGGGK

Turning to “3N mutant: blocking leucine zipper mutant, amino acid sequence SEQ ID NO: 106 (LEIEAAFLRQENTALRTRVAELEQEVQRLENEVSQYETRYGPLGGGK)”, the “presentation of secreted leucine zipper” value in the experiment with FLAG-RR12EE345L (C1498 cells co-transduced with FLAG-RR12EE345L GFP vector) is given as “enhanced presentation of secreted leucine zipper”. The FLAG binding entry in the experiment on FLAG-RR12EE345L (double transduced and single-transduced capture-zipper-only C1498 cells) is “increased FLAG binding in double transduced cells (intracellular pairing), but also in single-transduced capture leucine zipper-only cells (extracellular pairing)”.

Take `CC[C@H](C(=O)N1CCCC[C@H]1C(=O)O[C@H](CCc1ccc(OC)c(OC)c1)c1cccc(OCC(=O)NCC(CNC(=O)COc2cccc([C@@H](CCc3ccc(OC)c(OC)c3)OC(=O)[C@@H]3CCCCN3C(=O)[C@@H](CC)c3cc(OC)c(OC)c(OC)c3)c2)CN(C)C)c1)c1cc(OC)c(OC)c(OC)c1` [chemical inducer of dimerization]: the “induction of T cell apoptosis” value at iCaspase 9 (T cells with iCaspase 9 on one vector and CD20-CAR on the other, FIG. 5) is given as more than 90%. The cell death entry at iCaspase 9 (sorted cells with two vectors expressing CD19-CAR, CD20-CAR and iCaspase9, optionally IL-18, FIG. 6) is on record as “about 90%”.

For Rituximab, the depletion of cells entry with CD20 mimotope is reported as “selective depletion of double transduced cells”.
